Test results as given in patent US8937184B2, “1H-imidazole derivatives as cannabinoid CB2 receptor modulators” (Abbvie B.V., priority 2005, dated 2015).
Where two headings read alike, the source gives them in different places.

Tests used:
[1] = biological target: T1, human cannabinoid CB2 receptor (Homo sapiens, UniProt P34972); test: In vitro affinity for cannabinoid-CB2 receptors ([3H]CP-55,940 radioligand binding, CHO cell membranes)
T1 construct: expressed in transfected cells; host or cells: Chinese hamster ovary (CHO) cells, membrane preparation
T1 sequence (P34972 whole entry): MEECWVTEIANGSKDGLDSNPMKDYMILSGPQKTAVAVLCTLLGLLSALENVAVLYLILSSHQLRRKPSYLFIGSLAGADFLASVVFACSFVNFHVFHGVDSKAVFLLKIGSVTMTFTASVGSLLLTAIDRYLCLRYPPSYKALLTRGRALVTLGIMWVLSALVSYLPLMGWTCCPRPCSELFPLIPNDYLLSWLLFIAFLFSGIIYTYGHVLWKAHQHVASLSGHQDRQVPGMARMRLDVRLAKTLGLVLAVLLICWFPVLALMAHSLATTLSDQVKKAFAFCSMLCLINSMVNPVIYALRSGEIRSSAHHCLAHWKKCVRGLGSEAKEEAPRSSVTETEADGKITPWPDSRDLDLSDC
Description: (§1) The affinity of the compounds of the invention for cannabinoid CB2 receptors can be determined using membrane preparations of Chinese hamster ovary (CHO) cells in which the human cannabinoid CB2 receptor is stably transfected in conjunction with [^3H]CP-55,940 as radioligand. After incubation of a freshly prepared cell membrane preparation with the [^3H]-ligand, with or without addition of compounds of the invention, separation of bound and free ligand is performed by filtration over glassfiber filters. Radioactivity on the filter is measured by liquid scintillation counting.
The affinity of the compounds of the invention for cannabinoid CB2 receptors was determined as described above. From the binding affinity measured for a given compound of formula (I), one can estimate a theoretical lowest effective dose. At a concentration of the compound equal to twice the measured Ki-value, […] of the cannabinoid CB2 receptors likely will be occupied by the compound. Converting that concentration to mg of compound per kg of patient yields a theoretical lowest effective dose, assuming ideal bioavailability. Pharmacokinetic, pharmacodynamic, and other considerations may alter the dose actually administered to a higher or lower value. The dosage expediently administered is 0.001-1000 mg/kg, such as 0.1-100 mg/kg of patient's bodyweight.

[2] = biological target: T2, human cannabinoid CB1 receptor (Homo sapiens, UniProt P21554); test: In vitro affinity for cannabinoid-CB1 receptors ([3H]CP-55,940 radioligand binding, CHO cell membranes)
T2 construct: expressed in transfected cells; host or cells: Chinese hamster ovary (CHO) cells, membrane preparation
T2 sequence (P21554 whole entry): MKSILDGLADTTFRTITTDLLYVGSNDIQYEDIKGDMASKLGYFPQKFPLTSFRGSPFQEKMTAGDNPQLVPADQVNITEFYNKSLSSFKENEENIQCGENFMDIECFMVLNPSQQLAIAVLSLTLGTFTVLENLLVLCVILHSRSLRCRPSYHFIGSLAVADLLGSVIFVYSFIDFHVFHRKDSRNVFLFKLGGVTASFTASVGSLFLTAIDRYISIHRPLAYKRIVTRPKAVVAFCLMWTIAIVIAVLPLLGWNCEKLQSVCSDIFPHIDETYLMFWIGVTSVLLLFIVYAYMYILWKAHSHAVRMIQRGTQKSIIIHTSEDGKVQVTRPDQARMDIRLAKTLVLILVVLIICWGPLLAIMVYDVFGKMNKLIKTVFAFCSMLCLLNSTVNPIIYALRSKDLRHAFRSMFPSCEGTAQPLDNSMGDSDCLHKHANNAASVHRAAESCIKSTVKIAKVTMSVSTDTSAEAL
Description: as §1, with “CB1” for “CB2”

[3] = membranes of CHO cells stably transfected with human CB2 receptor, [3H]CP-55,940 radioligand, read-out: Human cannabinoid-CB2 receptor In vitro affinity - pKi value (converted)

Row | Molecule | melting point [°C] | further results
1 | Cc1nc(C(=O)NC23CC4CC(CC(C4)C2)C3)c(Cl)n1-c1ccccc1 [Compound 33] | – | Ki [1]: 7.94 nM
2 | Cc1nc(C(=O)NCC2CCC3C(C)(C)C34CC24)cn1-c1ccccc1 (stereo not drawn) [Compound 9] | 124 to 127 | –
3 | Cc1nc(C(=O)NC23CC4CC(CC(C4)C2)C3)c(C)n1-c1ccc2c(c1)OCCO2.Cl | 221 to 223 | –
4 | COc1cccc(-n2c(C)nc(C(=O)NCC3CCC4C(C)(C)C45CC35)c2C)c1 (stereo not drawn) [Compound 12] | 153 to 155 | –
5 | Cc1nc(C(=O)Nc2cccc(Cl)c2Cl)c(C)n1-c1ccccc1 [Compound 65, N-(2,3-dichlorophenyl)-2,5-dimethyl-1-phenyl-1H-imidazole-4-carboxamide] | 127 to 129 | –
6 | Cc1nc(C(=O)NCc2ccccc2C(F)(F)F)c(C)n1-c1ccccc1 [Compound 44] | 76 to 79 | Ki [1, 3]: 1.58 nM
7 | O=C(NC12CC3CC(CC(C3)C1)C2)c1nc(Cl)n(-c2ccccc2)c1Cl | 172 to 173 | –
8 | Cc1nc(C(=O)NC23CC4CC(CC(C4)C2)C3)c(C)n1C1CCCCC1 [Compound 14] | – | Ki [2]: > 1000 nM; Ki [1]: 6.31 nM
9 | Cc1nc(C(=O)NC23CC4CC(CC(C4)C2)C3)c(C)n1-c1ccccc1 [Compound 11] | – | Ki [2]: > 1000 nM; Ki [1]: 1 nM
10 | O=C(NC1C2CC3CC(C2)CC1C3)c1cn(-c2ccccc2)cn1 (stereo not drawn) [Compound 7] | 232 to 234 | –
11 | Cc1nc(C(=O)NC2CCCCCCC2)c(C)n1-c1ccccc1 [Compound 72] | – | Ki [1]: 5.01 nM
12 | O=C(NC12CC3CC(CC(C3)C1)C2)c1ncn(-c2ccccc2)c1Br [Compound 27, N-(adamant-1-yl)-5-bromo-1-phenyl-1H-imidazole-4-carboxamide] | 229 to 232 | –
13 | CCCCCCC(=O)c1nc(C)n(-c2ccccc2)c1C [Compound 26] | – | Ki [1, 3]: 158 nM
14 | CCCCc1c(C(=O)NC23CC4CC(CC(C4)C2)C3)nc(C)n1-c1ccccc1 | 171 to 172 | –
15 | O=C(NC12CC3CC(CC(C3)C1)C2)c1nc(Br)n(-c2ccccc2)c1Br | 228 to 231 | –
16 | N-[(1R,2S,5R)-rel-6,6-dimethylbicyclo[3.1.1]heptan-2-methyl]-5-methyl-1-phenyl-1H-imidazole-4-carboxamide [Compound 1] | – | Human cannabinoid-CB1 receptor In vitro affinity - pKi ([2]; membranes of CHO cells stably transfected with human CB1 receptor, [3H]CP-55,940 radioligand): <6.0; Human cannabinoid-CB2 receptor In vitro affinity - pKi value ([1]; membranes of CHO cells stably transfected with human CB2 receptor, [3H]CP-55,940 radioligand): 7.3
17 | Cc1nc(C(=O)N[C@@H]2C(C)(C)C3CC[C@@]2(C)C3)c(C)n1-c1ccccc1 | 130 to 132 | –
18 | Cc1nc(C(=O)Nc2cccc3ccccc23)c(C)n1-c1ccccc1.Cl | 177 to 179 | –
19 | Cc1nc(C(=O)Nc2cccc3ncccc23)c(C)n1-c1ccccc1 [Compound 46] | 139 to 141 | –
20 | Cc1c(C(=O)N[C@H]2C(C)(C)[C@H]3CC[C@]2(C)C3)ncn1CCCNS(C)(=O)=O | 149 to 156 | –
21 | Cc1nc(C(=O)Nc2ccc(C#N)c3ccccc23)c(C)n1-c1ccccc1 | 241.5 | –

Row | Molecule | melting point [°C] | further results
22 | Cc1nc(C(=O)NC23CC4CC(CC2C4)C3)c(C)n1-c1ccccc1 | 147 to 150 | –
23 | Cc1nc(C(=O)NC23CC4CC(CC(C4)C2)C3)c(Br)n1-c1ccccc1 [Compound 33A] | – | Ki ([2]; membranes of CHO cells stably transfected with human CB1 receptor, [3H]CP-55,940 radioligand, read-out: Human cannabinoid-CB1 receptor In vitro affinity - pKi (converted)): 794 nM; Ki [1]: 6.31 nM
24 | Cc1nc(C(=O)NC23CC4CC(CC(O)(C4)C2)C3)c(C)n1-c1ccccc1 [Compound 48, N-(3 hydroxyadamant-1-yl)-2,5-dimethyl-1-phenyl-1H-imidazole-4-carboxamide] | 215 to 220 | –
25 | Cc1c(C(=O)Nc2cccc3ccccc23)ncn1-c1ccccc1 | 167 to 169 | –
26 | Cc1nc(C(=O)NC2C3CC4CC(C3)CC2C4)c(C)n1-c1ccccc1 (stereo not drawn) [Compound 49] | 245 to 247 | Ki [2]: > 1000 nM; Ki [1]: 2.51 nM
27 | CCc1nc(C(=O)Nc2cccc3ccccc23)c(CC)n1-c1ccccc1 | 123 to 125 | –
28 | Cc1c(C(=O)N[C@H]2C(C)(C)[C@H]3CC[C@]2(C)C3)ncn1-c1ccccc1 | 149 to 152 | –
29 | Cc1c(C(=O)NC23CC4CC(CC(C4)C2)C3)ncn1Cc1ccccc1 | 182 to 184 | –
30 | O=C(NC12CC3CC(CC(C3)C1)C2)c1cn(-c2ccccc2)cn1 [Compound 6] | 198 to 200 | –
31 | Cc1c(C(=O)NCC2CCC3C(C)(C)C34CC24)ncn1CCCNS(C)(=O)=O (stereo not drawn) [Compound 22] | 84 to 108 | –
32 | Cc1c(C(=O)NC23CC4CC(CC(C4)C2)C3)nc(C(F)(F)F)n1-c1ccccc1 [Compound 64] | 170 to 172 | –
33 | Cc1nc(C(=O)NC23CC4CC(CC(C4)C2)C3)cn1-c1ccccc1 [Compound 8, N-adamantyl-2-methyl-1-phenyl-1H-imidazole-4-carboxamide] | 207 to 210 | –
34 | Cc1nc(C(=O)Nc2ccnc3cc(C(F)(F)F)ccc23)c(C)n1-c1ccccc1 | 198.5 | –
35 | Cc1nc(C(=O)NN2CCCCC2)c(C)n1-c1ccccc1 | 117 to 118 | –
36 | CCc1nc(C(=O)NC23CC4CC(CC(C4)C2)C3)cn1-c1ccccc1 [Compound 20] | – | Ki [2]: 251 nM; Ki [1]: 10 nM
37 | Cc1c(C(=O)NC23CC4CC(CC(C4)C2)C3)ncn1-c1ccccc1 [Compound 2] | 214 to 219 | –
38 | CCCCCn1cnc(C(=O)N[C@@H](Cc2ccccc2)C(=O)OC)c1 [BMS-III, reference compound] | – | Ki [1]: 63.1 nM
39 | Cc1c(C(=O)N[C@H]2C[C@H]3CC[C@]2(C)C3(C)C)ncn1-c1ccccc1 [Compound 4] | 209 to 212 | –
40 | COC(=O)[C@H](Cc1ccccc1)NC(=O)c1cn(CCOc2ccccc2)cn1 [BMS-I, reference compound] | – | Ki [1]: 398 nM
41 | CCc1c(C(=O)NC23CC4CC(CC(C4)C2)C3)nc(C)n1-c1ccccc1 [Compound 15] | – | Ki [2]: 631 nM; Ki [1]: < 1 nM
42 | COC(=O)[C@H](Cc1ccccc1)NC(=O)c1cn(CCN2CCOCC2)cn1 [BMS-II, reference compound] | – | Ki [1]: > 1000 nM
